Read-outs that look alike come from different tables or passages of the source.
Key:
MCF-10A [1] = conditions: cisplatin reference, 48 h; cited from earlier work
Hep G2 [2] = conditions: cisplatin reference, 48 h; cited from earlier work
Bj-5ta [3] = conditions: cisplatin reference, 48 h; cited from earlier work
A2058 [4] = conditions: cisplatin reference, 48 h; cited from earlier work
HeLa [5] = conditions: cisplatin reference, 48 h; cited from earlier work
A549 [6] = conditions: cisplatin reference, 48 h; cited from earlier work
PATU [7] = conditions: cisplatin reference, 48 h; cited from earlier work
HCT116 [8] = conditions: cisplatin reference, 48 h; cited from earlier work
Hep G2 [9] = assay: MTT assay, Hep G2; format: cell-based, human; conditions: hepatocellular carcinoma, 48 h incubation
In short: (§1)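 5–10 × 10^3 cells/well, 24 h attach → compound 5, 10, 20, 50 µmol/L in medium, 48 h → MTT → 10% SDS, 24 h → A540. IC50 by nonlinear regression, n ≥ 3.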

A2058 [10] = assay: MTT assay, A2058; format: cell-based; conditions: human melanoma, 48 h incubation
In short: (§2)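 Antiproliferative IC50 is derived by nonlinear regression from MTT colorimetry. Cells receive four compound concentrations (5 to 50 µmol/L) for 48 h under standard culture; formazan is read at 540 nm after SDS solubilisation.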

PATU [11] = assay: MTT assay, PATU 8902; format: cell-based, human; conditions: pancreas adenocarcinoma, 48 h incubation
In short: as §2

HCT116 [12] = assay: MTT assay, HCT116; format: cell-based, human; conditions: colorectal adenocarcinoma, 48 h incubation
In short: as §2

HeLa [13] = assay: MTT assay, HeLa; format: cell-based, human; conditions: cervical adenocarcinoma, 48 h incubation
In short: as §2

A549 [14] = assay: MTT assay, A549; format: cell-based, human; conditions: lung adenocarcinoma, 48 h incubation
In short: as §1

[15] = molecular target: T1, bovine serum albumin (BSA) (Bos taurus, UniProt P02769); assay: BSA fluorescence quenching (Stern–Volmer); format: binding; conditions: for Stern–Volmer quenching constant Ksv: BSA 1 μM, excitation 280 nm, PBS pH 7.4, 24 °C; for bimolecular quenching rate constant kq: kq = Ksv/τ0, τ0 = 10^−8 s, BSA, pH 7.4, 24 °C
T1 construct: purchased Sigma-Aldrich
T1 sequence (P02769 25-607): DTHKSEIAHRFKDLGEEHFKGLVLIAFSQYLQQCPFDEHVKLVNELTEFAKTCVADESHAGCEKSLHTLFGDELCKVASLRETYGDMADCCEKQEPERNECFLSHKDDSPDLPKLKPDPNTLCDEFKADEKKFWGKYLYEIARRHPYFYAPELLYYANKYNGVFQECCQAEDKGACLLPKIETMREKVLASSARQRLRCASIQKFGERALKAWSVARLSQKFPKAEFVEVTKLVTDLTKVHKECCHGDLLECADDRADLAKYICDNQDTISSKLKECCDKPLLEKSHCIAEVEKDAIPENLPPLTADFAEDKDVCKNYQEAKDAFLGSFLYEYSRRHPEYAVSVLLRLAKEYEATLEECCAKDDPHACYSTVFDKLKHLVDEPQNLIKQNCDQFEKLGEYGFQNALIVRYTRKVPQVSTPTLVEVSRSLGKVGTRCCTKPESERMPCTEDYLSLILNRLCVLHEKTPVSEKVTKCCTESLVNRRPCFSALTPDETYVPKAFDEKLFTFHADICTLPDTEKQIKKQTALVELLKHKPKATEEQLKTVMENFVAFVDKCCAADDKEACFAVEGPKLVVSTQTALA
From the text: BSA contains 582 amino acid residues, including tyrosine (Tyr), phenylalanine (Phe), and tryptophan (Trp). The tryptophan residues located at positions 134 and 212 being predominantly responsible for its intrinsic fluorescence due to their higher quantum yield than the other amino acids. When excitation occurs at 280 nm, both Trp and Tyr contribute to the fluorescence of the protein [44]. In this study, we investigated the interaction of newly synthesized derivatives (7e·2HCl, 12d·2HCl, 13c·HCl, and 13d), which have promising anticancer properties, with BSA. BSA (1 μM) was titrated with increasing concentration of acridine derivatives, and fluorescence spectra were recorded in the range of 300–500 nm (Figure 10). The fluorescence quenching for the quencher (Q) and protein interaction was analyzed using the Stern–Volmer equation [45, 46]: F0/F=1+Ksv [Q]=1+Kq τ0[Q] where F0 and F denote the fluorescence intensities in the absence and presence of the quencher Q, respectively. Ksv is the Stern–Volmer constant, kq is the bimolecular quenching rate constant (kq = Ksv/τ0), and τ0 is the lifetime of BSA in the absence of quencher, which is equal to 10^−8 s for the tryptophan fluorescence of proteins.
The fluorescence spectra were recorded using a Varian Cary Eclipse spectrofluorometer (Palo Alto, CA, USA) in a 10 mM phosphate-buffered saline solution (pH = 7.4) at 24 °C. The spectra were measured with an excitation wavelength of 280 nm using a slit width of 10 nm for both the excitation and emission beams over a range of 300–450 nm. Spectrofluorometric BSA titrations were performed with increasing concentrations of acridine derivatives.

Bj-5ta [16] = assay: MTT assay, BJ-5ta non-cancerous fibroblasts; format: cell-based, human; conditions: non-cancerous dermal fibroblasts, 48 h incubation
In short: (§3)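 IC50 by nonlinear regression from MTT absorbance (540 nm, SDS-dissolved formazan), at least three repeats. Non-cancerous human lines, MCF-10A and BJ-5ta fibroblasts, were treated 48 h with 5, 10, 20 and 50 µmol/L compound, added 24 h after seeding.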

MCF-10A [17] = assay: MTT assay, MCF-10A non-cancerous cells; format: cell-based, human; conditions: non-cancerous epithelial breast cells, 48 h incubation
In short: as §3

A2780 = assay: MTT assay, A2780; format: cell-based, human; conditions: ovarian adenocarcinoma, 48 h incubation
In short: as §1

Row | IC50 (HCT116 [12]) [µM] | IC50 (HeLa [13]) [µM] | IC50 (A549 [14]) [µM] | Stern–Volmer quenching constant Ksv [15] | bimolecular quenching rate constant kq [15] | Structure (SMILES) | IC50 (Hep G2 [9]) [µM] | IC50 (A2058 [10]) [µM] | IC50 (PATU [11]) [µM] | IC50 (Bj-5ta [16]) [µM] | also measured
1 |  |  |  |  |  | N.N.[Cl][Pt][Cl] [Cisplatin] |  |  |  |  | IC50 (MCF-10A [1]): 25.9 ± 2.1 µM; IC50 (Hep G2 [2]): 14 ± 2.8 µM; IC50 (Bj-5ta [3]): 31 ± 0.7 µM; IC50 (A2058 [4]): 18.8 ± 5.5 µM; IC50 (HeLa [5]): 30.4 ± 1.4 µM; IC50 (A549 [6]): 17.3 ± 2.2 µM; IC50 (PATU [7]): 20.7 ± 3.1 µM; IC50 (HCT116 [8]): 14.5 ± 2.5 µM
2 | 17.6 ± 4.5 | 19.3 ± 5.5 | > 50 | 10.47 × 10^4 [M^−1] | 10.47 × 10^12 [M^−1·s^−1] | COc1cc(/C=C2\SC(=O)N(Cc3c4ccccc4nc4ccccc34)C2=O)ccc1OCC(=O)Nc1ccc([N+](=O)[O-])cc1.Cl.Cl [12d·2HCl, 2-(4-{[(5Z)-3-[(Acridin-9-yl)methyl]-2,4-dioxo-1,3-thiazolidin-5-ylidene]methyl}-2-methoxyphenoxy)-N-(4-nitrophenyl)acetamide dihydrochloride] | > 50 | > 50 | 30.8 ± 6.2 | > 50 | 
3 | 4.9 ± 2.9 |  |  | 9.59 × 10^4 [M^−1] | 9.59 × 10^12 [M^−1·s^−1] | COc1cc(/C=C2\SC(=O)N(Cc3cccc4cc5ccccc5nc34)C2=O)ccc1OCC(=O)Nc1ccc([N+](=O)[O-])cc1 [Compound 13d, 2-(4-{[(5Z)-3-[(Acridin-4-yl)methyl]-2,4-dioxo-1,3-thiazolidin-5-ylidene]methyl}-2-methoxyphenoxy)-N-(4-nitrophenyl)acetamide] |  |  |  |  | IC50 (Hep G2 [9]; Homo sapiens, HepG2, 48 h): > 50 µM; IC50 (A2058 [10]; Homo sapiens, A2058, 48 h): 38.1 ± 1.65 µM; IC50 (PATU [11]; Homo sapiens, PaTu 8902, 48 h): > 50 µM; IC50 (HeLa [13]; Homo sapiens, HeLa, 48 h): 36.2 ± 5.23 µM; IC50 (A549 [14]; Homo sapiens, A549, 48 h): 46.9 ± 3.1 µM; IC50 (MCF-10A [17]; Homo sapiens, MCF-10A, 48 h): > 50 µM; IC50 (Bj-5ta [16]; Homo sapiens, Fibroblast, 48 h): 38.5 ± 4.5 µM; melting point: 254 to 257 °C (dec.); IC50 (A2780; Homo sapiens, A2780, 48 h): > 50 µM
4 | > 50 | 14.3 ± 6.4 | 14.6 ± 3.3 | 10.58 × 10^4 [M^−1] | 10.58 × 10^12 [M^−1·s^−1] | COc1cc(/C=C2\SC(=O)N(Cc3cccc4cc5ccccc5nc34)C2=O)ccc1OCC(=O)Nc1cc(OC)c(OC)c(OC)c1.Cl [13c·HCl, 2-(4-{[(5Z)-3-[(Acridin-4-yl)methyl]-2,4-dioxo-1,3-thiazolidin-5-ylidene]methyl}-2-methoxyphenoxy)-N-(3,4,5-trimethoxyphenyl)acetamide hydrochloride] | 23.4 ± 3.4 | > 50 | > 50 | > 50 | 
5 | 8.9 ± 3.1 | 20.5 ± 3.8 | 34.3 ± 5.7 | 10.74 × 10^4 [M^−1] | 10.74 × 10^12 [M^−1·s^−1] | Cl.Cl.O=C(COc1ccc(/C=C2\SC(=O)N(Cc3c4ccccc4nc4ccccc34)C2=O)cc1)Nc1ccccc1C(F)(F)F [Compound 7e·2HCl, 2-(4-{[(5Z)-3-[(Acridin-9-yl)methyl]-2,4-dioxo-1,3-thiazolidin-5-ylidene]methyl}phenoxy)-N-[2-(trifluoromethyl)phenyl]acetamide dihydrochloride] | > 50 | > 50 | 11 ± 2.2 | > 50 | IC50 (MCF-10A [17]): > 50 µM; IC50 (A2780): > 50 µM
